Measurements reported in patent publication US12661410B2, “Compounds for targeted degradation of RET” (C4 Therapeutics, Inc., priority 2020, dated 2026).
Residue numbers refer to the chain shown, from its start. Like-named read-outs stand apart in the source and are kept apart here.

Legend:
RET(KD: 658-1114 G810R) = target: T1, RET(KD: 658-1114 G810R) (Homo sapiens, UniProt P07949, G810R); experiment: HiBiT-Degradation, RET G810R degradation assay (Nano-Glo HiBiT Lytic), 293T.165 cells; format: cell-based; settings: for Emax / DC50: 6.0 hours; for Emax: % remaining protein, read-out: 293T.165 RET(KD: 658-1114 G810R) 6.0 hours (Emax); for DC50: read-out: 293T.165 RET(KD: 658-1114 G810R) 6.0 hours (DC50)
T1 construct: 658-1114; expressed in transfected cells; host or cells: 293T.165 (293T cells, generated in-house)
T1 sequence (P07949 658-1114 G810R): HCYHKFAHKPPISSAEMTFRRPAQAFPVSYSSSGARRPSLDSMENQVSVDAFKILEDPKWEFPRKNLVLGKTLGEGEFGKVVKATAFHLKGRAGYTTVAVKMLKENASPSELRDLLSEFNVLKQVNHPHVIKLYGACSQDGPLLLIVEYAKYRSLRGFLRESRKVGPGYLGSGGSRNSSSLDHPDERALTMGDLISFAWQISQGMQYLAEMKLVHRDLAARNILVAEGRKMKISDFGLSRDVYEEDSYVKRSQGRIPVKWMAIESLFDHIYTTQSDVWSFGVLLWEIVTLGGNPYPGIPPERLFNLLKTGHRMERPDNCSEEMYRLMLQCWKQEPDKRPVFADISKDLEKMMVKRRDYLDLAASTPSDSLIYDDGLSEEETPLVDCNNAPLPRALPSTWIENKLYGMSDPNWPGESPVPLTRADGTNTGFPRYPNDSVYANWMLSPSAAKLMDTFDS
Summary of the method: (§1)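 Luminescence readout of HiBiT-tagged RET kinase domain remaining after 6 h compound exposure. Cells: 293T.144 (wild type) or 293T.165 (G810R), 11 half-log doses up to 10 μM, duplicates. DC50 and Emax as % remaining protein taken from curve fits.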

RET (658-1114) = target: T2, RET (658-1114) (Homo sapiens, UniProt P07949); experiment: HiBiT-Degradation, RET wild-type degradation assay (Nano-Glo HiBiT Lytic), 293T.144 cells; format: cell-based; settings: for DC50 / Emax: 6.0 hours; for DC50: read-out: 293T.144 RET (658-1114) 6.0 hours (DC50); for Emax: read-out: 293T.144 RET (658-1114) 6.0 hours (Emax)
T2 construct: 658-1114; expressed in transfected cells; host or cells: 293T.144 (293T cells, generated in-house)
T2 sequence (P07949 658-1114): T1 sequence (P07949 658-1114 G810R) with R153G
Summary of the method: as §1

[1] = half-maximal degradation concentration

SMILES | Emax (RET(KD: 658-1114 G810R)) [%] | DC50 (RET(KD: 658-1114 G810R); [1]) [nM] | 293T.165 RET(KD: 658-1114 G810R) 6.0 hours (IP) [nM] (RET(KD: 658-1114 G810R)) | 293T.144 RET (658-1114) 6.0 hours (IP) [nM] (RET (658-1114)) | Emax (RET (658-1114); % remaining protein) [%] | DC50 (RET (658-1114); [1]) [nM] | 293T.165 RET(KD: 658-1114 G810R) 6.0 hours (Emax) (RET(KD: 658-1114 G810R); HiBiT-Degradation) | 293T.165 RET(KD: 658-1114 G810R) 6.0 hours (IP) [nM] (RET(KD: 658-1114 G810R); HiBiT-Degradation) | DC50 (RET(KD: 658-1114 G810R); HiBiT-Degradation) [nM] | 293T.144 RET (658-1114) 6.0 hours (IP) [nM] (RET (658-1114); HiBiT-Degradation) | DC50 (RET (658-1114); HiBiT-Degradation) [nM] | Emax (RET (658-1114); HiBiT-Degradation) [%]
CCC1(C(=O)NC(C)C)CCN(c2ccc(-c3nc(-c4cnn(C5CCN(C(=O)CC6(O)CCN(c7ccc(NC8CCC(=O)NC8=O)cc7Cl)CC6)CC5)c4)cn4ncc(C#N)c34)cn2)CC1 (stereo not shown) [Compound 14, 1-(5-(6-(1-(1-(2-(1-(2-Chloro-4-((2,6-dioxopiperidin-3-yl)amino)phenyl)-4-hydroxypiperidin-4-yl)acetyl)piperidin-4-yl)-1H-pyrazol-4-yl)-3-cyanopyrazolo[1,5-a]pyrazin-4-yl)pyridin-2-yl)-4-ethyl-N-isopropylpiperidine-4-carboxamide] | < 30 | < 50 | – | – | – | – | ++++ (< 30% = ++++) | ++++ (< 50 nM = ++++) | < 50 | ++++ (< 50 nM = ++++) | < 50 | < 30
COc1ccc(CN2C3COCC2CN(c2ccc(-c4nc(-c5cnn([C@H]6CC[C@H](N7CCN(c8cc(F)c(NC9CCC(=O)NC9=O)cc8F)CC7)CC6)c5)cn5ncc(C#N)c45)cn2)C3)cn1 (relative stereo) [Compound 162, 6-[1-[4-[4-[4-[(2,6-dioxo-3-piperidyl)amino]-2,5-difluoro-phenyl]piperazin-1-yl]cyclohexyl]pyrazol-4-yl]-4-[6-[9-[(6-methoxy-3-pyridyl)methyl]-3-oxa-7,9-diazabicyclo[3.3.1]nonan-7-yl]-3-pyridyl]pyrazolo[1,5-a]pyrazine-3-carbonitrile] | < 30 | < 100 | ++++ (<50 nM = ++++) | ++++ (<50 nM = ++++) | < 30 | < 50 | – | – | – | – | – | –
COc1ccc(CN2C3COCC2CN(c2ccc(-c4nc(-c5cnn(C6CCC(N7CCC(c8ccc(NC9CCC(=O)NC9=O)cc8Cl)CC7)CC6)c5)cn5ncc(C#N)c45)cn2)C3)cn1 (stereo not shown) [Compound 206, 6-[1-[4-[4-[2-chloro-4-[(2,6-dioxo-3-piperidyl)amino]phenyl]-1-piperidyl]cyclohexyl]pyrazol-4-yl]-4-[6-[9-[(6-methoxy-3-pyridyl)methyl]-3-oxa-7,9-diazabicyclo[3.3.1]nonan-7-yl]-3-pyridyl]pyrazolo[1,5-a]pyrazine-3-carbonitrile] | < 30 | < 100 | ++++ (<50 nM = ++++) | ++++ (<50 nM = ++++) | < 30 | < 50 | – | – | – | – | – | –
CC(C)(C)OC(=O)N1[C@@H]2COC[C@H]1CN(c1ccc(-c3nc(-c4cnn([C@H]5CC[C@@H](N6CCN(c7ccc(NC8CCC(=O)NC8=O)cc7F)CC6)CC5)c4)cn4ncc(C#N)c34)cn1)C2 (single isomer, unassigned) [Compound 159] | < 30 | < 50 | ++++ (<50 nM = ++++) | ++++ (<50 nM = ++++) | < 30 | < 50 | – | – | – | – | – | –
N#Cc1cnn2cc(-c3ccc(N4CCN(C(=O)CN5CCC(c6ccc(NC7CCC(=O)NC7=O)cc6F)CC5)CC4)cc3)nc(-c3ccc(N4CC5CC(C4)N5Cc4ccccc4)nc3)c12 (stereo not shown) [Compound 54, 4-[6-(6-benzyl-3,6-diazabicyclo[3.1.1]heptan-3-yl)-3-pyridyl]-6-[4-[4-[2-[4-[4-[(2,6-dioxo-3-piperidyl)amino]-2-fluoro-phenyl]-1-piperidyl]acetyl]piperazin-1-yl]phenyl]pyrazolo[1,5-a]pyrazine-3-carbonitrile] | < 30 | < 100 | – | – | – | – | ++++ (< 30% = ++++) | ++++ (< 50 nM = ++++) | < 100 | ++++ (< 50 nM = ++++) | < 50 | < 30

Continued, in another order:

Emax (RET(KD: 658-1114 G810R)) [%] | DC50 (RET(KD: 658-1114 G810R); [1]) [nM] | 293T.165 RET(KD: 658-1114 G810R) 6.0 hours (IP) [nM] (RET(KD: 658-1114 G810R)) | 293T.144 RET (658-1114) 6.0 hours (IP) [nM] (RET (658-1114)) | Emax (RET (658-1114); % remaining protein) [%] | DC50 (RET (658-1114); [1]) [nM] | SMILES | 293T.165 RET(KD: 658-1114 G810R) 6.0 hours (Emax) (RET(KD: 658-1114 G810R); HiBiT-Degradation) | 293T.165 RET(KD: 658-1114 G810R) 6.0 hours (IP) [nM] (RET(KD: 658-1114 G810R); HiBiT-Degradation) | DC50 (RET(KD: 658-1114 G810R); HiBiT-Degradation) [nM] | 293T.144 RET (658-1114) 6.0 hours (IP) [nM] (RET (658-1114); HiBiT-Degradation) | DC50 (RET (658-1114); HiBiT-Degradation) [nM] | Emax (RET (658-1114); HiBiT-Degradation) [%]
< 30 | < 50 | ++++ (<50 nM = ++++) | ++++ (<50 nM = ++++) | < 30 | < 50 | CCC1(C(=O)NC(C)C)CCN(c2ccc(-c3nc(-c4cnn([C@H]5CC[C@H](N6CCC(c7ccc(N[C@H]8CCC(=O)NC8=O)cc7F)CC6)CC5)c4)cn4ncc(C#N)c34)cn2)CC1 (single isomer, unassigned) [Compound 123] | – | – | – | – | – | –
< 30 | < 100 | ++++ (<50 nM = ++++) | ++++ (<50 nM = ++++) | < 30 | < 50 | CCC1(C(=O)NC2CCC2)CCN(c2ccc(-c3nc(-c4cnn([C@H]5CC[C@H](CN6CCN(c7ccc(N[C@H]8CCC(=O)NC8=O)cc7F)CC6)CC5)c4)cn4ncc(C#N)c34)cn2)CC1 [Compound 189, 1-[5-[3-cyano-6-[1-[4-[[4-[4-[[(3S)-2,6-dioxo-3-piperidyl]amino]-2-fluoro-phenyl]piperazin-1-yl]methyl]cyclohexyl]pyrazol-4-yl]pyrazolo[1,5-a]pyrazin-4-yl]-2-pyridyl]-N-cyclobutyl-4-ethyl-piperidine-4-carboxamide] | – | – | – | – | – | –
< 30 | < 50 | ++++ (<50 nM = ++++) | ++++ (<50 nM = ++++) | < 30 | < 50 | CO[C@@H](C(=O)N1CCN(c2ccc(-c3nc(-c4cnn([C@H]5CC[C@@H](N6CCN(c7c(F)cc(NC8CCC(=O)NC8=O)cc7F)CC6)CC5)c4)cn4ncc(C#N)c34)cn2)CC1)c1ccccc1 (single isomer, unassigned) [Compound 201] | – | – | – | – | – | –
< 30 | < 50 | ++++ (<50 nM = ++++) | ++++ (<50 nM = ++++) | < 30 | < 50 | COc1ccc(CC2(O)CCN(c3ccc(-c4nc(-c5cnn([C@H]6CC[C@H](N7CCN(c8cc(OC)c(NC9CCC(=O)NC9=O)cc8F)CC7)CC6)c5)cn5ncc(C#N)c45)cn3)CC2)nc1 (stereo partly shown) [Compound 215, 6-[1-[4-[4-[4-[(2,6-dioxo-3-piperidyl)amino]-2-fluoro-5-methoxy-phenyl]piperazin-1-yl]cyclohexyl]pyrazol-4-yl]-4-[6-[4-hydroxy-4-[(5-methoxy-2-pyridyl)methyl]-1-piperidyl]-3-pyridyl]pyrazolo[1,5-a]pyrazine-3-carbonitrile] | – | – | – | – | – | –
< 30 | < 50 | ++++ (<50 nM = ++++) | ++++ (<50 nM = ++++) | < 30 | < 50 | N#Cc1cnn2cc(-c3cnn(C4CCN(C(=O)CC5(O)CCN(c6ccc(NC7CCC(=O)NC7=O)cc6F)CC5)CC4)c3)nc(-c3ccc(N4CCC(Oc5ccccn5)CC4)nc3)c12 (stereo not shown) [Compound 109, 6-[1-[1-[2-[1-[4-[(2,6-dioxo-3-piperidyl)amino]-2-fluoro-phenyl]-4-hydroxy-4-piperidyl]acetyl]-4-piperidyl]pyrazol-4-yl]-4-[6-[4-(2-pyridyloxy)-1-piperidyl]-3-pyridyl]pyrazolo[1,5-a]pyrazine-3-carbonitrile] | – | – | – | – | – | –
< 30 | < 50 | ++++ (<50 nM = ++++) | ++++ (<50 nM = ++++) | < 30 | < 50 | CCC1(C(=O)NC(C)C)CCN(c2ccc(-c3nc(-c4cnn(C5CCN(C(=O)CC6(O)CCN(c7cc(OC)c(NC8CCC(=O)NC8=O)cc7Cl)CC6)CC5)c4)cn4ncc(C#N)c34)cn2)CC1 (stereo not shown) [Compound 90, 1-[5-[6-[1-[1-[2-[1-[2-chloro-4-[(2,6-dioxo-3-piperidyl)amino]-5-methoxy-phenyl]-4-hydroxy-4-piperidyl]acetyl]-4-piperidyl]pyrazol-4-yl]-3-cyano-pyrazolo[1,5-a]pyrazin-4-yl]-2-pyridyl]-4-ethyl-N-isopropyl-piperidine-4-carboxamide] | – | – | – | – | – | –
